Structures can show the parent of a compound that is named as a salt.
Target: T1, H+/K+-ATPase (Sus scrofa, UniProt P19156)
T1 construct: reaction buffer solution (60 mmol/l Tris-HCl buffer solution, pH 7.4) containing hog gastric vesicle; from tissue; host or cells: hog stomach (gastric vesicles, by centrifugation after Rabon et al. 1988)
Assay: Inhibition of proton pump (H+/K+-ATPase) activity in hog gastric vesicles
Type: biochemical
Conditions: K+ specific H+/K+-ATPase activity, pH 7.4, 37° C. for 40 minutes, malachite green
How it was run: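 Hog gastric vesicles in 60 mmol/l Tris-HCl pH 7.4 with compound, started with ATP, 40 min at 37° C. Pi read by malachite green at 570 nm; K+-specific activity taken as difference between +K+ and −K+ activity. IC50 from % inhibition by 4-parameter logistic fit.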

T1 sequence (P19156 2-1034 limits assumed): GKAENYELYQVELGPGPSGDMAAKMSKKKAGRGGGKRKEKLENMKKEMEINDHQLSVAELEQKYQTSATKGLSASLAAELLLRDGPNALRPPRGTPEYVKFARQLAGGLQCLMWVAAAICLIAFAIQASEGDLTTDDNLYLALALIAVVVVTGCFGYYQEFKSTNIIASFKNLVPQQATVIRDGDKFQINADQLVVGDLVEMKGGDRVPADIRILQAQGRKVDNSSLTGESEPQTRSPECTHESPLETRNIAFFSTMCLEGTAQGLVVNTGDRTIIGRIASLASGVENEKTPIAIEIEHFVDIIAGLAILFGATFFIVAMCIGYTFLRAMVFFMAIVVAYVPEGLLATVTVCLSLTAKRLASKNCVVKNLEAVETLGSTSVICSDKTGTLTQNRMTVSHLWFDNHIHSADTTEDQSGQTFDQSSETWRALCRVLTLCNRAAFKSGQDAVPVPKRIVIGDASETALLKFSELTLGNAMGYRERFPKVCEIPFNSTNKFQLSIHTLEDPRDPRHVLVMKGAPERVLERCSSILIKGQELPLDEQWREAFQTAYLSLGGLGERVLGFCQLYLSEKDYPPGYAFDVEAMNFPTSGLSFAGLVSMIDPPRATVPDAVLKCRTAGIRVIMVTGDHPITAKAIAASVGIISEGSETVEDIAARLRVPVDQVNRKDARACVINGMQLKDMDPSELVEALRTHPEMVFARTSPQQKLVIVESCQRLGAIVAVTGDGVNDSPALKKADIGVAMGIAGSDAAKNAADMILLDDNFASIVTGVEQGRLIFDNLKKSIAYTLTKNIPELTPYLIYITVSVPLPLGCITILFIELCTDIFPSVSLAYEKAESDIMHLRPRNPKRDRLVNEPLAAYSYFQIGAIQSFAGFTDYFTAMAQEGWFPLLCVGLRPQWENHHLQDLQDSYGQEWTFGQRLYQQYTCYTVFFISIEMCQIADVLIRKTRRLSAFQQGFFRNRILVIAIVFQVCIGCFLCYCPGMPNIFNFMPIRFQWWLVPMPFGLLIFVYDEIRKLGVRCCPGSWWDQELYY
T1 sequence (P18434 whole entry partner): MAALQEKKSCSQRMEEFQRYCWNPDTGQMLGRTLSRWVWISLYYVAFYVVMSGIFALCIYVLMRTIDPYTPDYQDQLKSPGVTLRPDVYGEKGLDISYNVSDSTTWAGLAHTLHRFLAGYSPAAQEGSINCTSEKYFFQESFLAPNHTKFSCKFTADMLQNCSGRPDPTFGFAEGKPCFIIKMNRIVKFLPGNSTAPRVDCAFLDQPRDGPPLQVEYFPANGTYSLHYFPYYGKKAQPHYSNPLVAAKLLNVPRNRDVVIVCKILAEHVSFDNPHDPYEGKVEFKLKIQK

Structure (SMILES) | IC50 [nM]
CNC1NCc2c1cn(S(=O)(=O)c1cccc(Cl)c1)c2-c1ccccc1F (stereo not drawn) [Example 115, 5-((3-chlorophenyl)sulfonyl)-4-(2-fluorophenyl)-N-methyl-1,2,3,5-tetrahydropyrrolo[3,4-c]pyrrol-1-amine hydrochloride] | 40000
CNC1CCc2c1cn(S(=O)(=O)c1cc(Cl)cc(Cl)c1)c2-c1ccccc1F (stereo not drawn) [Example 77, 2-((3,5-dichlorophenyl)sulfonyl)-1-(2-fluorophenyl)-N-methyl-2,4,5,6-tetrahydrocyclopenta[c]pyrrol-4-amine] | 410
CNC1CCc2c1cn(S(=O)(=O)c1cccc(Cl)c1)c2-c1ccc(C(F)(F)F)cc1 (stereo not drawn) [Example 16, 2-((3-chlorophenyl)sulfonyl)-N-methyl-1-(4-(trifluoromethyl)phenyl)-2,4,5,6-tetrahydrocyclopenta[c]pyrrol-4-amine] | 970
CN(C)C1CCCc2c1cn(S(=O)(=O)c1cccc(Cl)c1)c2-c1ccccc1F (stereo not drawn) [Example 138, 2-((3-chlorophenyl)sulfonyl)-1-(2-fluorophenyl)-N,N-dimethyl-4,5,6,7-tetrahydro-2H-isoindole-4-amine] | 7100
CNC1CCc2c1cn(S(=O)(=O)c1cccc(Cl)c1)c2-c1cccc(C(F)(F)F)c1 (stereo not drawn) [Example 10, 2-((3-chlorophenyl)sulfonyl)-N-methyl-1-(3-(trifluoromethyl)phenyl)-2,4,5,6-tetrahydrocyclopenta[c]pyrrol-4-amine] | 970
CNC1CCc2c1cn(S(=O)(=O)c1cccc(Cl)c1C)c2-c1ccccc1F (stereo not drawn) [Example 63, 2-((3-chloro-2-methylphenyl)sulfonyl)-1-(2-fluorophenyl)-N-methyl-2,4,5,6-tetrahydrocyclopenta[c]pyrrol-4-amine] | 610
CNC1CCCc2c1cn(S(=O)(=O)c1cccc(Cl)c1)c2-c1cncnc1 (stereo not drawn) [Example 129, 2-((3-chlorophenyl)sulfonyl)-N-methyl-1-(pyrimidin-5-yl)-4,5,6,7-tetrahydro-2H-isoindole-4-amine] | 40000
CNC1CCCc2c1cn(S(=O)(=O)c1cccc(OC(F)F)c1)c2-c1ccccc1F (stereo not drawn) [Example 123, 2-((3-(difluoromethoxy)phenyl)sulfonyl)-1-(2-fluorophenyl)-N-methyl-4,5,6,7-tetrahydro-2H-isoindole-4-amine] | 2000
CNC1CCc2c1cn(S(=O)(=O)c1ccccc1)c2-c1cc(Cl)ccc1Cl (stereo not drawn) [Example 45, 1-(2,5-dichlorophenyl)-N-methyl-2-(phenylsulfonyl)-2,4,5,6-tetrahydrocyclopenta[c]pyrrol-4-amine] | 550
CNC1CCc2c1cn(S(=O)(=O)c1cccnc1)c2-c1ccc(C)cc1F (stereo not drawn) [Example 90, 1-(2-fluoro-4-methylphenyl)-N-methyl-2-(pyridin-3-ylsulfonyl)-2,4,5,6-tetrahydrocyclopenta[c]pyrrol-4-amine] | 520
CNC1CCc2c1cn(S(=O)(=O)c1cccnc1)c2-c1cc(Cl)ccc1Cl (stereo not drawn) [Example 92, 1-(2,5-dichlorophenyl)-N-methyl-2-(pyridin-3-ylsulfonyl)-2,4,5,6-tetrahydrocyclopenta[c]pyrrol-4-amine] | 350
CNC1CCc2c1cn(S(=O)(=O)c1cccc(Cl)c1)c2-c1ccc(C(F)(F)F)nc1 (stereo not drawn) [Example 39] | 2510
CNC1CCc2c1cn(S(=O)(=O)c1ccc(Cl)c(Cl)c1)c2-c1ccccc1F (stereo not drawn) [Example 76, 2-((3,4-dichlorophenyl)sulfonyl)-1-(2-fluorophenyl)-N-methyl-2,4,5,6-tetrahydrocyclopenta[c]pyrrol-4-amine] | 490
CNC1CCc2c1cn(S(=O)(=O)c1cccnc1)c2-c1cc(Cl)cc(C)c1F (stereo not drawn) [Example 93, 1-(5-chloro-2-fluoro-3-methylphenyl)-N-methyl-2-(pyridin-3-ylsulfonyl)-2,4,5,6-tetrahydrocyclopenta[c]pyrrol-4-amine] | 340
CNC1CCc2c1cn(S(=O)(=O)c1cccc(Cl)c1)c2-c1cccc(F)c1 (stereo not drawn) [Example 9, 2-((3-chlorophenyl)sulfonyl)-1-(3-fluorophenyl)-N-methyl-2,4,5,6-tetrahydrocyclopenta[c]pyrrol-4-amine] | 830
CNC1CCc2c1cn(S(=O)(=O)c1cc(Cl)cc(Cl)c1)c2-c1cc(Cl)ccc1Cl (stereo not drawn) [Example 79, 1-(2,5-dichlorophenyl)-2-((3,5-dichlorophenyl)sulfonyl)-N-methyl-2,4,5,6-tetrahydrocyclopenta[c]pyrrol-4-amine] | 770
CNC1CCc2c1cn(Cc1cccc(Cl)c1)c2-c1ccccc1F (stereo not drawn) [Example 107, 2-(3-chlorobenzyl)-1-(2-fluorophenyl)-N-methyl-2,4,5,6-tetrahydrocyclopenta[c]pyrrol-4-amine] | 2860
CNC1CCc2c1cn(S(=O)(=O)c1cccc(Cl)c1)c2-c1ccc(O)cc1 (stereo not drawn) [Example 12, 4-(2-((3-chlorophenyl)sulfonyl)-4-(methylamino)-2,4,5,6-tetrahydrocyclopenta[c]pyrrol-1-yl)phenol] | 470

Structure (SMILES) | IC50 [nM]
CNC1CCc2c1cn(S(=O)(=O)c1ccccc1Cl)c2-c1ccc(C)cc1F (stereo not drawn) [Example 48, 2-((2-chlorophenyl)sulfonyl)-1-(2-fluoro-4-methylphenyl)-N-methyl-2,4,5,6-tetrahydrocyclopenta[c]pyrrol-4-amine] | 1000
CNC1CCCCc2c1cn(S(=O)(=O)c1cccnc1)c2-c1ccccc1F (stereo not drawn) [Example 146, 1-(2-fluorophenyl)-N-methyl-2-(pyridin-3-ylsulfonyl)-2,4,5,6,7,8-hexahydrocyclohepta[c]pyrrol-4-amine] | 4500
CNC1CCc2c1cn(S(=O)(=O)c1ccc(F)cc1F)c2-c1ccccc1F (stereo not drawn) [Example 65, 2-((2,4-difluorophenyl)sulfonyl)-1-(2-fluorophenyl)-N-methyl-2,4,5,6-tetrahydrocyclopenta[c]pyrrol-4-amine] | 940
CNC1CCc2c1cn(S(=O)(=O)c1ccccc1)c2-c1ccc(C)cc1F (stereo not drawn) [Example 44, 1-(2-fluoro-4-methylphenyl)-N-methyl-2-(phenylsulfonyl)-2,4,5,6-tetrahydrocyclopenta[c]pyrrol-4-amine] | 650
CNC1CCc2c1cn(S(=O)(=O)c1cccc(Cl)c1)c2-c1ccccc1 (stereo not drawn) [Example 3, 2-((3-chlorophenyl)sulfonyl)-N-methyl-1-phenyl-2,4,5,6-tetrahydrocyclopenta[c]pyrrol-4-amine] | 450
CNC1CCc2c1cn(S(=O)(=O)c1ccc(OC)nc1Cl)c2-c1ccccc1F (stereo not drawn) [Example 98, 2-((2-chloro-6-methoxypyridin-3-yl)sulfonyl)-1-(2-fluorophenyl)-N-methyl-2,4,5,6-tetrahydrocyclopenta[c]pyrrol-4-amine] | 3620
CNC1CCc2c1cn(S(=O)(=O)c1cccc(Cl)c1)c2-c1ccccc1Cl (stereo not drawn) [Example 5, 1-(2-chlorophenyl)-2-((3-chlorophenyl)sulfonyl)-N-methyl-2,4,5,6-tetrahydrocyclopenta[c]pyrrol-4-amine] | 740
CNC1CCCc2c1cn(S(=O)(=O)c1cccc(F)c1)c2-c1ccccc1F (stereo not drawn) [Example 120, 1-(2-fluorophenyl)-2-((3-fluorophenyl)sulfonyl)-N-methyl-4,5,6,7-tetrahydro-2H-isoindole-4-amine] | 1500
CNC1CCCc2c1cn(S(=O)(=O)c1cccnc1)c2-c1ccccc1C (stereo not drawn) [Example 132, N-methyl-2-(pyridin-3-ylsulfonyl)-1-(o-tolyl)-4,5,6,7-tetrahydro-2H-isoindole-4-amine] | 8000
CNC1CCc2c1cn(S(=O)(=O)c1ccccc1Cl)c2-c1cc(Cl)ccc1Cl (stereo not drawn) [Example 50, 2-((2-chlorophenyl)sulfonyl)-1-(2,5-dichlorophenyl)-N-methyl-2,4,5,6-tetrahydrocyclopenta[c]pyrrol-4-amine] | 1050
CNC1CCc2c1cn(S(=O)(=O)c1cccc(Cl)c1)c2-c1ccccc1C (stereo not drawn) [Example 4, 2-((3-chlorophenyl)sulfonyl)-N-methyl-1-(o-tolyl)-2,4,5,6-tetrahydrocyclopenta[c]pyrrol-4-amine] | 610
CNC1CCc2c1cn(S(=O)(=O)c1ccc(OC(F)(F)F)cc1Cl)c2-c1ccccc1F (stereo not drawn) [Example 68, 2-((2-chloro-4-(trifluoromethoxy)phenyl)sulfonyl)-1-(2-fluorophenyl)-N-methyl-2,4,5,6-tetrahydrocyclopenta[c]pyrrol-4-amine] | 840
CN(C)C1CCCc2c1cn(S(=O)(=O)c1cccc(OC(F)F)c1)c2-c1ccccc1F (stereo not drawn) [Example 142, 2-((3-(difluoromethoxy)phenyl)sulfonyl)-1-(2-fluorophenyl)-N,N-dimethyl-4,5,6,7-tetrahydro-2H-isoindole-4-amine] | 8000
CNC1CCc2c1cn(S(=O)(=O)c1cccc(C(=O)N3CCOCC3)c1)c2-c1ccccc1F (stereo not drawn) [Example 58, (3-((1-(2-fluorophenyl)-4-(methylamino)-5,6-dihydrocyclopenta[c]pyrrol-2(4H)-yl)sulfonyl)phenyl)(morpholino)methanone] | 5780
CNC1CCc2c1cn(S(=O)(=O)c1cccnc1)c2-c1ccccc1F (stereo not drawn) [Example 88, 1-(2-fluorophenyl)-N-methyl-2-(pyridin-3-ylsulfonyl)-2,4,5,6-tetrahydrocyclopenta[c]pyrrol-4-amine] | 510
CNC1CCc2c1cn(S(=O)(=O)c1cncc(Cl)c1)c2-c1ccccc1F (stereo not drawn) [Example 95, 2-((5-chloropyridin-3-yl)sulfonyl)-1-(2-fluorophenyl)-N-methyl-2,4,5,6-tetrahydrocyclopenta[c]pyrrol-4-amine] | 1720
CNC1CCc2c1cn(S(=O)(=O)c1cccc(Cl)c1)c2-c1cc(C)sc1C (stereo not drawn) [Example 35, 2-((3-chlorophenyl)sulfonyl)-1-(2,5-dimethylthiophen-3-yl)-N-methyl-2,4,5,6-tetrahydrocyclopenta[c]pyrrol-4-amine] | 840
CNC1CCc2c1cn(S(=O)(=O)c1cccc(Cl)c1)c2-c1ccc(F)cc1F (stereo not drawn) [Example 19, 2-((3-chlorophenyl)sulfonyl)-1-(2,4-difluorophenyl)-N-methyl-2,4,5,6-tetrahydrocyclopenta[c]pyrrol-4-amine] | 280

Source: patent US10039747B2, “Tetrahydrocyclopentapyrrole derivatives and a method for preparing the same” (Daewoong Pharmaceutical Co., Ltd., priority 2013, dated 2018)
